Measured values: publication PMC10743971, “MP Allosterically Activates AMPK to Enhance ABCA1 Stability by Retarding the Calpain-Mediated Degradation Pathway” (International Journal of Molecular Sciences, 2023)

Assays:
AMPK (AMPKα1β1γ1) [1] = target: T1, AMPK (AMPKα1β1γ1) (Rattus norvegicus, UniProt P80385); assay: MST (Kd […]); ITC (Kd […]); STD-NMR; CD; type: binding
T1 construct: gene Prkag1; recombinant full-length AMPKα1β1γ1 heterotrimer, 6×His tag at the N-terminal end of the α-subunit; with AMPK α1 (Prkaa1) and β1 (Prkab1) subunits
T1 sequence (P80385 whole entry): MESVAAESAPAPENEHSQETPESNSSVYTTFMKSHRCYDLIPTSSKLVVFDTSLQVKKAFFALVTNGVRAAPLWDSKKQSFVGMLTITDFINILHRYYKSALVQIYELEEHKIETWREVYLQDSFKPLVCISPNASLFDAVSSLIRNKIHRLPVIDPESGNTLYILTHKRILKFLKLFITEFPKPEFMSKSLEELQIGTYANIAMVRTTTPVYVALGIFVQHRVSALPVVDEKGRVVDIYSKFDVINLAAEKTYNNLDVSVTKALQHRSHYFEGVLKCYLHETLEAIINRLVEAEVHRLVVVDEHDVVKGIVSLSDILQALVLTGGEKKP
T1 sequence (P54645 whole entry partner): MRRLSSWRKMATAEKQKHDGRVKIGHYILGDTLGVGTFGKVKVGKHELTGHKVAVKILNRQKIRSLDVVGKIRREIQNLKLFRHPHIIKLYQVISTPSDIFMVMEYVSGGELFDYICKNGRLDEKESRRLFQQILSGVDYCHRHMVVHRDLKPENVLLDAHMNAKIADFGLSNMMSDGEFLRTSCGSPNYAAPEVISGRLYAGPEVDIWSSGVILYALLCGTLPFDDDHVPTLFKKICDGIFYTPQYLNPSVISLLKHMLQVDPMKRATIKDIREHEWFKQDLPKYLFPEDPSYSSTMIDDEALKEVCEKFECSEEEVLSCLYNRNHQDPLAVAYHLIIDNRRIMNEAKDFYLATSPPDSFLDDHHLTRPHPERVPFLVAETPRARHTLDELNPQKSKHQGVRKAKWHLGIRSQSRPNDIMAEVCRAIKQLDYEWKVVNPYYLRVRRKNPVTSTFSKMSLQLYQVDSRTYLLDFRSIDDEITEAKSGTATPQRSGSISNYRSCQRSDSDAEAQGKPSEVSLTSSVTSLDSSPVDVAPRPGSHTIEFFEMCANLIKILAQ
T1 sequence (P80386 2-270 partner): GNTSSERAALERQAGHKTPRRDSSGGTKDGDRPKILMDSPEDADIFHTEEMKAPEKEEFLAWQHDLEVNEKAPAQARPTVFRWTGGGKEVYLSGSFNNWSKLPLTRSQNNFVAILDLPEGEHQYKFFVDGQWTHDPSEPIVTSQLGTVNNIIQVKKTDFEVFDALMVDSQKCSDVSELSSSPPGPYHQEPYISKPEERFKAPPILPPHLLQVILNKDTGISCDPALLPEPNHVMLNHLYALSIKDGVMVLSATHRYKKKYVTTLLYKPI

AMPK (AMPKα1β1γ1) [2] = target: T1, AMPK (AMPKα1β1γ1); assay: STD-NMR and NMR competition titration against MP; type: binding

Compound	Kd (AMPK (AMPKα1β1γ1) [1])	STD-NMR and NMR competition titration against MP (AMPK (AMPKα1β1γ1) [2])
O=P(O)(O)OC[C@H]1O[C@@H](n2cnc3c(Nc4cccc(O)c4)ncnc32)[C@H](O)[C@@H]1O [MP, ((2R,3S,4R,5R)-3,4-dihydroxy-5-(6-((3-hydroxyphenyl)amino)-9H-purin-9-yl)tetrahydrofuran-2-yl) methyl dihydrogen phosphate]	4.27 µM	–
Nc1ncnc2c1ncn2[C@@H]1O[C@H](COP(=O)(O)O)[C@@H](O)[C@H]1O [AMP, adenosine monophosphate]	–	adenosine monophosphate (AMP) and MP bind directly to AMPK
